# Results published in ChEMBL document CHEMBL4627407, “Identification of a Potent Oridonin Analogue for Treatment of Triple-Negative Breast Cancer” (J Med Chem, 2020).
# Active and inactive are the calls of the source. The calls are words filed in the database; no cut-off is given here.
# What was measured:
# HCC1806 [1] = assay: Induction of apoptosis in human HCC1806 cells assessed as early apoptotic cells at 200 uM after 48 hrs by Annexin V-FITC/propidium iodide double staining based flow cytometry (reference value: 2.16%); type: functional
# MDA-MB-468 = assay: Antiproliferative activity against human MDA-MB-468 cells after 72 hrs by MTT assay; type: functional, cell-based; settings: MDA-MB-468, 72 h
# HCC1806 [2] = assay: Antitumor activity against human HCC1806 cells harboring luciferase gene xenografted in ICR mouse assessed as shrunken tumor tissue at 12.5 to 25 mg/kg, iv administered once daily for 21 consecutive days and measured once every week; type: functional, organism-based
# MDA-MB-231 = assay: Antiproliferative activity against human MDA-MB-231 cells after 72 hrs by MTT assay; type: functional, cell-based; settings: MDA-MB-231, 72 h
# [3] = Toxicity in ICR mouse assessed as reduction in body weight at 12.5 to 25 mg/kg, iv administered once per day for 23 consecutive days and measured every 2 days; type: organism-based; settings: in vivo, 48 h
# HCC1806 [4] = assay: Induction of apoptosis in human HCC1806 cells assessed as viable cells at 100 uM after 48 hrs by Annexin V-FITC/propidium iodide double staining based flow cytometry (reference value: 95.7%); type: functional; settings: HCC1806, 48 h, read-out: Activity
# HCC1806 [5] = assay: Induction of apoptosis in human HCC1806 cells assessed as necrotic cells at 50 uM after 48 hrs by Annexin V-FITC/propidium iodide double staining based flow cytometry (reference value: 1.32%); type: functional
# HCC1806 [6] = assay: Antimigratory activity against human HCC1806 cells measured up to 48 hrs by phase contrast microscopic based scratch wound healing assay; type: functional, cell-based
# HCC1806 [7] = assay: Antimigratory activity in human HCC1806 cells assessed as reduction in EGFR expression at 50 to 200 nM after 48 hrs by Western blot analysis; type: functional, cell-based
# [8] = target: T1, M-phase inducer phosphatase 3 (Homo sapiens) (UniProt P30307); assay: Inhibition of cdc25c in human HCC1806 cells assessed as increase in cdc25c phosphorylation at ser216 residue by western blot analysis; type: cell-based
# T1 sequence (whole entry): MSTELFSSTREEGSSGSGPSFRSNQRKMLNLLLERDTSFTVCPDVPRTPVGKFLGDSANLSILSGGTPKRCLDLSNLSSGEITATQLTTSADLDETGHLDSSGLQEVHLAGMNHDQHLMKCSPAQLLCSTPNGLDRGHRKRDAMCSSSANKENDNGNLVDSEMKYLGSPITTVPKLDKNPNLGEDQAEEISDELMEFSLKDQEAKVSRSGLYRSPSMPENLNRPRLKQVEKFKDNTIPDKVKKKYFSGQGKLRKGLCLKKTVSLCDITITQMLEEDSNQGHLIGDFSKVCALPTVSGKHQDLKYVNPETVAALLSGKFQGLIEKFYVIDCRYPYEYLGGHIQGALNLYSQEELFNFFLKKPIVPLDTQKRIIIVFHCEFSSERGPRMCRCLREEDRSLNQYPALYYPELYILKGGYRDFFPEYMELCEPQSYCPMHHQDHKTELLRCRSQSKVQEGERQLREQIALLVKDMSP
# HCC1806 [9] = assay: Induction of apoptosis in human HCC1806 cells assessed as necrotic cells at 100 uM after 48 hrs by Annexin V-FITC/propidium iodide double staining based flow cytometry (reference value: 1.32%); type: functional
# HCC1806 [10] = assay: Induction of intracellular reactive oxygen species generation in human HCC1806 cells at 200 nM incubated for 48 hrs in presence of ROS scavenger N-acetyl cysteine by DCFH2-DA staining based flow cytometeric analysis; type: functional, cell-based
# [11] = Inhibition of PI3K/Akt/mTOR signalling pathway in human HCC1806 cells assessed as reduction in phosphorylated mTOR expression at S2448 residue after 48 hrs by Western blot analysis; type: cell-based
# HCC1806 [12] = assay: Induction of cell cycle arrest in human HCC1806 cells assessed as accumulation at S phase at 200 nM after 48 hrs by propidium iodide staining based FACScan flow cytometry (reference value: 18.89%); type: functional
# SK-BR-3 = assay: Antiproliferative activity against human SK-BR-3 cells after 72 hrs by MTT assay; type: functional, cell-based; settings: SK-BR-3, 72 h
# HCC1806 [13] = assay: Induction of apoptosis in human HCC1806 cells after 48 hrs by Annexin V-FITC/propidium iodide double staining based flow cytometry; type: functional, cell-based
# HCC1806 [14] = assay: Induction of apoptosis in human HCC1806 cells assessed as decrease in Bcl2 expression at >= 50 nM after 48 hrs by Western blot analysis; type: functional, cell-based
# [15] = target: Focal adhesion kinase 1 (Homo sapiens) (UniProt Q05397); assay: Inhibition of FAK phosphorylation at Tyr397 residue in human HCC1806 cells at 50 to 200 nM after 48 hrs by Western blot analysis; type: cell-based
# Sequence of Focal adhesion kinase 1 (Homo sapiens) (Q05397 2-1052 limits assumed): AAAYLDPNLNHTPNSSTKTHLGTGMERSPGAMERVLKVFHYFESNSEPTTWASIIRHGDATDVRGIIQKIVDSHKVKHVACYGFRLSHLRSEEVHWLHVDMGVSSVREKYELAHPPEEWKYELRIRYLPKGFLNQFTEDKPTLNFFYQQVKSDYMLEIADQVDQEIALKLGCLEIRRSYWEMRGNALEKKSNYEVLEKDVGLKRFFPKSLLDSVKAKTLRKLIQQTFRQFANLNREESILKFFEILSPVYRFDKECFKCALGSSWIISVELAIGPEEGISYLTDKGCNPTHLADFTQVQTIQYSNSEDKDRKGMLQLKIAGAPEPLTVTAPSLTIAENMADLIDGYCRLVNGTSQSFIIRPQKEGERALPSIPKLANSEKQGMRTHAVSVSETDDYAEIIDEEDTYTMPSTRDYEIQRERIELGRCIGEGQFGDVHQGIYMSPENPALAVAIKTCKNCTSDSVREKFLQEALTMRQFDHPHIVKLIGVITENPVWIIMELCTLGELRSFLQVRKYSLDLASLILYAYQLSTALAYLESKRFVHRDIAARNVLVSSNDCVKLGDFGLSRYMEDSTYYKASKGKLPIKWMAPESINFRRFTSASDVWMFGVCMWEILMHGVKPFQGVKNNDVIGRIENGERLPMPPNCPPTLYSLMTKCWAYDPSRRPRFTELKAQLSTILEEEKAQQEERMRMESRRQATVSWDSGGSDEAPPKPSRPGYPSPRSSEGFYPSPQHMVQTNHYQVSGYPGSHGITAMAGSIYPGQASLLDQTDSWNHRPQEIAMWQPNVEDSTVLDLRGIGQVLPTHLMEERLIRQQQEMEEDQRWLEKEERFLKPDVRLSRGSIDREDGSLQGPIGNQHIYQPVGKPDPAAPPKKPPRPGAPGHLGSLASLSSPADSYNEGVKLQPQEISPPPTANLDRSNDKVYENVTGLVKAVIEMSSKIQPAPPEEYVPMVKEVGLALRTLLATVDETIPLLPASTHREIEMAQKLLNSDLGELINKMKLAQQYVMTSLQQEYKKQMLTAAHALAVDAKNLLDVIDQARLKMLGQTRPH
# HCC1806 [16] = assay: Antiproliferative activity against human HCC1806 cells after 72 hrs by MTT assay; type: functional, cell-based; settings: HCC1806, 72 h
# HCC1806 [17] = assay: Induction of cell cycle arrest in human HCC1806 cells assessed as downregulation of cyclin B1 expression by western blot analysis; type: functional, cell-based
# HCC1806 [18] = assay: Antitumor activity against human HCC1806 cells in ICR mouse assessed as increase in apoptosis in tumor at 12.5 to 25 mg/kg, iv administered once per day for 23 consecutive days by Ki67 staining-based immunohistochemical analysis; type: functional, organism-based
# HCC1806 [19] = assay: Antitumor activity against human HCC1806 cells in ICR mouse assessed as tumor shrinkage at 12.5 to 25 mg/kg, iv administered once per day for 23 consecutive days by TUNEL based immunohistochemical analysis; type: functional, organism-based
# HCC1806 [20] = assay: Induction of apoptosis in human HCC1806 cells assessed as increase in Bax expression at 50 to 200 nM after 48 hrs by Western blot analysis; type: functional, cell-based
# HCC1806 [21] = assay: Suppression of FAK expression in human HCC1806 cells at 50 to 200 nM after 48 hrs by Western blot assay; type: functional, cell-based
# HCC1806 [22] = assay: Induction of cell cycle arrest in human HCC1806 cells assessed as accumulation at S phase at 100 nM after 48 hrs by propidium iodide staining based FACScan flow cytometry (reference value: 18.89%); type: functional
# HCC1806 [23] = assay: Induction of apoptosis in human HCC1806 cells assessed as increase in Bad expression at 50 to 200 nM after 48 hrs by Western blot analysis; type: functional, cell-based
# HCC1806 [24] = assay: Antitumor activity against human HCC1806 cells xenografted in iv dosed ICR mouse assessed as reduction in tumor volume administered once per day for 23 consecutive days and measured every 2 days; type: functional, organism-based
# HCC1806 [25] = assay: Induction of apoptosis in human HCC1806 cells assessed as late apoptotic cells at 50 uM after 48 hrs by Annexin V-FITC/propidium iodide double staining based flow cytometry (reference value: 0.81%); type: functional
# HCC1806 [26] = assay: Antitumor activity against human HCC1806 cells in ICR mouse assessed as tumor shrinkage at 12.5 to 25 mg/kg, iv administered once per day for 23 consecutive days by hematoxylin and eosin staining based histopathological assay; type: functional, organism-based
# HCC1806 [27] = assay: Antimigratory activity against human HCC1806 cells assessed as reduction in MMP2 expression at 50 to 200 nM after 48 hrs by Western blot analysis; type: functional, cell-based
structure (smiles),measurement,setting,value
C=C1C(=O)[C@@]23C(=O)[C@@H]4OC[C@]5(C=CCC(C)(C)[C@@H]45)[C@@H]2CC[C@@H]1[C@H]3OC(=O)/C=C/c1ccncc1,Activity,HCC1806 [1],22.49%
same,IC50,MDA-MB-468,450 nM
same,Activity,HCC1806 [2],Active
same,IC50,MDA-MB-231,630 nM
same,Activity,[3],Non-Toxic
same,viability at 100 µM,HCC1806 [4],69%
same,Activity,HCC1806 [5],0.46%
same,Activity,HCC1806 [6],Dose-dependent effect
same,Activity,HCC1806 [7],Active
same,inhibition,[8],Dose-dependent effect
same,Activity,HCC1806 [9],0.66%
same,Activity,HCC1806 [10],inactive
same,inhibition,[11],Dose-dependent effect
same,Activity,HCC1806 [12],20.74%
same,IC50,SK-BR-3,220 nM
same,Activity,HCC1806 [13],Dose-dependent effect
same,Activity,HCC1806 [14],Active
same,inhibition,[15],Active
same,IC50,HCC1806 [16],180 nM
same,Activity,HCC1806 [17],Dose-dependent effect
same,Activity,HCC1806 [18],Active
same,Activity,HCC1806 [19],Active
same,Activity,HCC1806 [20],Active
same,inhibition,HCC1806 [21],inactive
same,Activity,HCC1806 [22],19.13%
same,Activity,HCC1806 [23],Active
same,Activity,HCC1806 [24],Dose-dependent effect
same,Activity,HCC1806 [25],2.43%
same,Activity,HCC1806 [26],Active
same,Activity,HCC1806 [27],Active
